Measurements reported in patent publication US4837342A, “Prostacyclin analogue, and blood circulation improving agent and anti-ulcer composition containing it as active ingredient” (Sagami Chemical Research Center, priority 1986, dated 1989).

Tests used:
Ethanol ulcer = Ethanol ulcer inhibiting activity; type: in vivo, Male wister rats; settings: rat; oral administration of 30 μg/kg
Description: Ethanol ulcer inhibiting activity
Male wister rats having a weight of from 170 to 270 g were put into individual cages and starved for 24 hours. During this starvation period, the rats were allowed to drink water freely. A test compound or PGE2 as a comparative compound was orally administered in an amount of 3, 10 or 30 μg/kg, and 30 minutes later, 1 ml of 99.5% ethanol was orally administered to each rat. One hour after the ethanol administration, each rat was filled by cervical vertebral luxation, and the stomach was taken out. A 1% formaline solution was injected into the stomach in an amount of about 8 ml, and the stomach was fixed in the formaline solution for 30 minutes. After the fixing, the stomach was severed along the greater curvature, and the mucous membrane surface of the stomach was gently washed with flowing water. Then, the total length of damages appearing on the gastric glandular portion was obtained and used as the ulcer index.
The ethanol ulcer inhibiting activity of a test compound was represented by ED50 (i.e. the dose of the test compound at which the ulcer was inhibited by 50% relative to the ulcer index of the non-treated group). To the non-treated group, the solvent was administered.

diastolic blood pressure [1] = settings: background statement; cited from earlier work
[2] = background; cited from earlier work
diastolic blood pressure [3] = assay: Hypotensive activity, anesthetized dog; type: in vivo, crossbred adult dog; settings: Canis lupus familiaris, iv, read-out: Hypotensive activity ED50 (dose reducing diastolic blood pressure by 50 mmHg); heading: Hypotensive activity ED50; dog; femoral vein; Table 1
Description: A male or female crossbred adult dog having a weight of from 9 to 14 kg was anesthetized by intraveous administration of sodium Pentobarbital. Then, the left carotid was exposed under artificial respiration, and the blood pressure was measured by using an electric blood pressure meter. […]

[4] = tested on: Blood platelet (ADP agglutination); assay: Blood platelet agglutination inhibiting activity (ADP-induced), washed rabbit platelet suspension; type: cell-based, rabbit (Japanese white male rabbits); settings: Oryctolagus cuniculus, Platelet; ADP 10 μM; concentration suppressing agglutination to 50%; read-out: Platelet agglutination inhibiting activity ED50, ADP agglutination
Description: Blood platelet aggutination inhibiting activity
Japanese white male rabbits having a weight of from 2.0 to 2.5 kg were used.
Under anesthesia with sodium Pentobarbital, blood was sampled from the carotid artery, and mixed with a 1/7 volume of an anticoagulant citric acid dextrose solution. Then, the mixture was subjected to centrifugal separation at 140×g for 15 minutes, whereupon the supernatant (platelet rich plasma:PRP) was obtained. PRP was subjected to centrifugal separation at 1,300×g for 7 minutes. The blood platelet pellets thus obtained were washed with a HEPES buffer solution (pH 6.5) for washing blood platelets, and subjected to centrifugal separation at 1,300×g for 7 minutes. The blood platelet pellets washed twice under such condition, were suspended in a suspending liquid (a buffer solution for washing blood platelets, which contains 0.1% of human fibrinogen, 1.8 mM of CaCl2 and 1.2 mM of MgCl2) to obtain a blood platelet suspension having a concentration of from 5×10^8 to 8×10^8 platelets/ml.
The platelet agglutination ability was measured by means of an agglutination meter. To 380 μl of the platelet suspension, 10 μl of a test compound or a solvent as the control, was added. Three minutes later, 10 μl of a platelet agglutinating substance (10 μM of ADP or 1 μg/ml of collagen, as the final concentration) was added thereto to induce agglutination.
The blood platelet agglutination inhibiting activity of each test compound was represented by ED50 (i.e. the concentration of the test compound where the platelet agglutination is suppressed to 50%).

Hydrochloric acid ulcer = Hydrochloric acid ulcer inhibiting activity; type: in vivo, wister rats; settings: rat; oral administration of 30 μg/kg
Description: Hydrochloric acid ulcer inhibiting activity
Male wister […] having a weight of from 190 to 240 g were used. The rats were starved in the same manner as in Test Example 6, and the test compounds and PGE2 were, respectively, orally administered in an amount of 30 μg/kg, and 30 minutes later, 1 ml of 0.6N hydrochloric acid was orally administered. Thirty minutes after the hydrochloric acid administration, each rat was killed by cervical vertebral luxation. Then, the stomach was taken out and fixed, and the ulcer index was obtained, in the same manner as in Test Example 6. The hydrochloric acid ulcer inhibiting activity of a test compound was represented by the inhibiting percentage (i.e. the percentage of the ulcer index of the treated group to the ulcer index of the non-treated group). To the non-treated group, the solvent was administered.

CCCCC[C@H](O)/C=C/[C@@H]1[C@H]2C/C(=C/CCCC(=O)O)O[C@H]2C[C@H]1O [Prostacyclin, (5Z,13E)-(9α,11α,15S)-6,9-epoxy-11,15-dihydroxyprosta-5,13-diene acid]
Ethanol ulcer inhibition (in words) (Ethanol ulcer): No inhibiting activity
Hypotensive activity of prostacyclin (in words) (diastolic blood pressure [1]): remarkable hypotensive activities
Chemical stability (in words) [2]: very unstable
ED (50 mmHg) (diastolic blood pressure [3]): 0.24 µg/kg
IC50 [4]: 2.9 nM
Hydrochloric acid ulcer inhibition (in words) (Hydrochloric acid ulcer): No inhibiting activity
